Source: ChEMBL document CHEMBL1201862, “PubChem BioAssay data set” (2004)
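96-well plates; 48 h exposure; 5 concentrations. Endpoints by linear interpolation between flanking doses. Not reached: highest tested concentration assigned. GI50 is the concentration that inhibits growth by half.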 The source made the active and inactive calls. No stated cut-off is given here; in the data, active = GI50 up to about 1.1 µM and inactive = higher.

Legend:
Assay in all cases: NCI tumour cell line growth inhibition, 48 h
A498 = system: A498
SK-OV-3 = system: SK-OV-3
MDA-MB-435 = system: MDA-MB-435
KM12 = system: KM12
OVCAR-5 = system: OVCAR-5
Malme-3M = system: Malme-3M
M14 = system: M14
MOLT-4 = system: MOLT-4
SNB-75 = system: SNB-75
U-251 = system: U-251
SK-MEL-2 = system: SK-MEL-2
MDA-MB-231 = system: MDA-MB-231
UACC-257 = system: UACC-257
UACC-62 = system: UACC-62
NCI/ADR-RES = system: NCI/ADR-RES
LOX IMVI = system: LOX IMVI
RPMI-8226 = system: RPMI-8226
MCF7 = system: MCF7
BT-549 = system: BT-549
NCI-H226 = system: NCI-H226

Measured: GI50

Cc1nccn1S(=O)(=O)c1ccc(Br)cc1Br
inactive: A498 35.9 µM | SK-OV-3 41.8 µM | MDA-MB-435 19.5 µM | KM12 27.7 µM | OVCAR-5 35.1 µM | Malme-3M 50.8 µM | M14 16.9 µM | MOLT-4 29 µM | SNB-75 12.5 µM | U-251 44.7 µM | SK-MEL-2 22.1 µM | MDA-MB-231 19.1 µM | UACC-257 34.9 µM | UACC-62 33.6 µM | NCI/ADR-RES 28.5 µM | LOX IMVI 40.9 µM | RPMI-8226 19.5 µM | MCF7 37.5 µM | BT-549 56.2 µM

COc1cc2c(cc1OC)C13CCN4CC5CCOC6CC(=O)N2C1C6C5CC43 (stereo not given)
inactive: A498 > 100 µM | SK-OV-3 > 100 µM | MDA-MB-435 > 100 µM | KM12 > 100 µM | OVCAR-5 > 100 µM | Malme-3M > 100 µM | M14 > 100 µM | MOLT-4 1.81 µM | U-251 > 100 µM | SK-MEL-2 > 100 µM | MDA-MB-231 > 100 µM | UACC-257 > 100 µM | UACC-62 > 100 µM | NCI/ADR-RES > 100 µM | NCI-H226 > 100 µM | LOX IMVI > 100 µM | RPMI-8226 > 100 µM | MCF7 > 100 µM | BT-549 > 100 µM

CN(c1ccccc1)S(=O)(=O)c1ccc([N+](=O)[O-])cc1
inactive: MDA-MB-435 > 100 µM | KM12 46.5 µM | OVCAR-5 > 100 µM | Malme-3M 40.6 µM | M14 55.7 µM | U-251 > 100 µM | SK-MEL-2 > 100 µM | MDA-MB-231 79.3 µM | UACC-257 92.5 µM | NCI/ADR-RES 95.1 µM | NCI-H226 > 100 µM | LOX IMVI > 100 µM | RPMI-8226 61.5 µM | MCF7 > 100 µM | BT-549 > 100 µM

O=C1N2CCc3c([nH]c4ccccc34)C23CC2CCCC12S3 (stereo not given)
inactive: A498 33 µM | SK-OV-3 > 50 µM | MDA-MB-435 33.7 µM | KM12 25.4 µM | OVCAR-5 > 50 µM | Malme-3M 27.6 µM | M14 > 50 µM | MOLT-4 25.8 µM | U-251 > 50 µM | SK-MEL-2 > 50 µM | MDA-MB-231 > 50 µM | UACC-257 18.2 µM | UACC-62 36.7 µM | NCI/ADR-RES 10.7 µM | NCI-H226 > 50 µM | LOX IMVI 34.2 µM | RPMI-8226 27.4 µM | MCF7 18.7 µM | BT-549 21.7 µM

CCOC(=O)C1(C(=O)OCC)C=C(c2ccccc2)N(C2OC(COC(C)=O)C(OC(C)=O)C(OC(C)=O)C2OC(C)=O)C1=S (stereo not given)
inactive: A498 85.1 µM | SK-OV-3 70.3 µM | MDA-MB-435 54 µM | KM12 45.6 µM | OVCAR-5 > 100 µM | Malme-3M > 100 µM | M14 56.5 µM | MOLT-4 42.4 µM | U-251 > 100 µM | SK-MEL-2 36.8 µM | MDA-MB-231 > 100 µM | UACC-257 90.4 µM | UACC-62 57.7 µM | NCI/ADR-RES 64.1 µM | NCI-H226 > 100 µM | LOX IMVI > 100 µM | RPMI-8226 17 µM | MCF7 44.7 µM | BT-549 72.3 µM

Cc1ccc2c(=O)cc(Cc3cccs3)[nH]c2n1
inactive: SK-OV-3 > 100 µM | MDA-MB-435 > 100 µM | KM12 > 100 µM | OVCAR-5 > 100 µM | Malme-3M > 100 µM | M14 > 100 µM | MOLT-4 > 100 µM | SNB-75 95.5 µM | U-251 > 100 µM | SK-MEL-2 > 100 µM | MDA-MB-231 > 100 µM | UACC-257 > 100 µM | UACC-62 > 100 µM | NCI/ADR-RES > 100 µM | NCI-H226 > 100 µM | LOX IMVI > 100 µM | RPMI-8226 > 100 µM | MCF7 > 100 µM | BT-549 > 100 µM

O=C(c1ccc(Cl)cc1)N(C(=O)N1CCCCC1)c1ccccc1
inactive: A498 > 100 µM | SK-OV-3 33.9 µM | MDA-MB-435 > 100 µM | KM12 > 100 µM | OVCAR-5 > 100 µM | Malme-3M 37.3 µM | M14 > 100 µM | MOLT-4 18.9 µM | U-251 > 100 µM | SK-MEL-2 25.2 µM | MDA-MB-231 42.5 µM | UACC-62 > 100 µM | NCI/ADR-RES 66.5 µM | NCI-H226 > 100 µM | LOX IMVI 68.1 µM | RPMI-8226 22.6 µM | MCF7 65.5 µM | BT-549 48.3 µM

C1=N\c2ccc(cc2)-c2ccc(cc2)/N=C\c2ccc(cc2)OCc2cccc(n2)COc2ccc/1cc2
inactive: A498 > 100 µM | SK-OV-3 61.2 µM | MDA-MB-435 > 100 µM | KM12 > 100 µM | OVCAR-5 > 100 µM | Malme-3M 33 µM | M14 > 100 µM | MOLT-4 85.3 µM | SNB-75 64.7 µM | U-251 45.5 µM | SK-MEL-2 > 100 µM | MDA-MB-231 > 100 µM | UACC-257 > 100 µM | UACC-62 > 100 µM | NCI/ADR-RES 99.3 µM | NCI-H226 37 µM | RPMI-8226 > 100 µM | MCF7 > 100 µM | BT-549 > 100 µM

OC(CN(CCCl)CCCl)C(O)C(O)C(O)CN(CCCl)CCCl (stereo not given)
inactive: A498 > 100 µM | SK-OV-3 > 100 µM | MDA-MB-435 > 100 µM | KM12 > 100 µM | OVCAR-5 > 100 µM | Malme-3M 85.7 µM | M14 > 100 µM | U-251 37.4 µM | SK-MEL-2 > 100 µM | MDA-MB-231 > 100 µM | UACC-257 > 100 µM | UACC-62 12.4 µM | NCI/ADR-RES 78.9 µM | NCI-H226 > 100 µM | LOX IMVI 27.4 µM | RPMI-8226 > 100 µM | MCF7 29 µM | BT-549 > 100 µM

C=CCN1C[C@@H](C)N([C@@H](c2ccccc2)c2ccc(C(=O)N(CC)CC)cc2)C[C@@H]1C
inactive: A498 > 100 µM | SK-OV-3 > 100 µM | MDA-MB-435 > 100 µM | KM12 > 100 µM | OVCAR-5 > 100 µM | Malme-3M > 100 µM | M14 > 100 µM | MOLT-4 33.3 µM | U-251 > 100 µM | SK-MEL-2 > 100 µM | MDA-MB-231 > 100 µM | UACC-62 > 100 µM | NCI/ADR-RES > 100 µM | NCI-H226 81.7 µM | RPMI-8226 95.5 µM | MCF7 > 100 µM | BT-549 > 100 µM

C=C(C)COc1cc(/N=C(/S)OC(C)C)ccc1Cl
inactive: SK-OV-3 19.3 µM | MDA-MB-435 15.2 µM | KM12 20.2 µM | OVCAR-5 15.7 µM | M14 17.2 µM | MOLT-4 12.1 µM | SNB-75 15.2 µM | U-251 16.9 µM | SK-MEL-2 13.6 µM | MDA-MB-231 15.4 µM | UACC-257 17.3 µM | UACC-62 17.3 µM | NCI/ADR-RES 15.2 µM | NCI-H226 17.9 µM | LOX IMVI 16.3 µM | RPMI-8226 20 µM | MCF7 15.4 µM | BT-549 10.8 µM
